These results are taken from patent US20260347372A1, “SMALL MOLECULE INHIBITORS OF KRAS G12D MUTANT” (MERCK SHARP & DOHME LLC, priority 2023, published 2026).

The structures appear in SMILES notation.

One may read the IC50 as the midpoint of a concentration-inhibition curve.

One assay concerns the target KRAS G12D (Homo sapiens, UniProt P01116, G12D). Briefly: SOS-catalyzed nucleotide exchange assay, KRAS G12D (Procedure A). The assay is classed as biochemical. The following applies: guanine nucleotide exchange (GNE). An excerpt:
(§1) Procedure for SOS-Catalyzed Nucleotide Exchange Assay for KRAS-WT, G12C/D/V, G13D, HRAS, and NRAS (Procedure A)
(§2) Recombinant KRAS-G12C protein used in this assay has an additional triple mutation (C51S/C80L/C118S). Whereas KRAS-WT, G12D/V, G13D, HRAS and NRAS are in context of their WT protein sequence background. Specifically, the SOS-catalyzed nucleotide exchange assay utilizes a preformed TR-FRET complex containing a specific biotinylated RAS protein (KRAS-WT, G12C/V/D, G13D, HRAS, NRAS; described above) with Bodipy-GDP, and Terbium-streptavidin. Compounds are preincubated with this complex for 60 minutes. Subsequently, recombinant human SOS protein and unlabeled GTP are added to initiate the exchange reaction. Small molecule inhibitors stabilize the Bodipy-GDP complex whereas the untreated protein rapidly exchanges Bodipy-GDP for unlabeled GTP resulting in reduced TR-FRET signal.
(§3) To assemble the preformed TR-FRET complexes, each biotinylated RAS protein is diluted to 2 μM in an EDTA Buffer (20 mM HEPES pH 7.5, 50 mM sodium chloride, 10 mM EDTA, and 0.01% Tween) and incubated at room temperature for one hour. This mixture is then further diluted to 90 nM in an Assay Buffer (20 mM HEPES pH 7.5, 150 mM sodium chloride, 10 mM magnesium chloride, and 0.005% Tween) containing 15 nM of Terbium-Streptavidin (Invitrogen, catalog #PV3577) and 900 nM of Bodipy-GDP (Invitrogen, catalog #G22360) and incubated at room temperature for six hours. It should be noted that this preformed TR-FRET complex for each of the RAS protein were made ahead of time, aliquoted and stored at −80° C. until the day of the experiment.
(§4) Each test compound (10 mM stock in DMSO) is diluted in DMSO to make a final-10-point, 3-fold dilution and is acoustically dispensed into a 384-well assay plate (Corning, catalog #3820) using an Echo 550 (Labcyte). Each well of the assay plate receives 3 μL of a specific 3×RAS preformed TR-FRET complex and 3 μL of Assay Buffer and is incubated at room temperature for 60 minutes (preincubation time). Each well then receives 3 μL of 3× recombinant human SOS protein and GTP (Sigma, G8877) in Assay Buffer and is incubated at room temperature for 30 minutes (G13D), 60 minutes (KRAS WT/G12C/D, H/NRAS) or 90 minutes for G12V. The final reaction in each well of 9 μL consists of 3 mM GTP, specific Ras and SOS proteins in the following concentrations: KRAS-G12C/SOS=3 nM/40 nM, KRAS-WT and G12D/SOS=1 nM/40 nM, KRAS-G12V/SOS=1.25 nM/160 nM, KRAS-G13D/SOS=1.25 nM/0 nM, HRAS and NRAS=1.25 nM/40 nM.
(§5) The time-resolved fluorescence resonance energy transfer (TR-FRET) signal is measured on an Envision (PerkinElmer) plate reader: Excitation filter=340 nm; emission1=495 nm; emission2=520 nm; dichroic mirror=D400/D505; delay time=[…]. The signal of each well is determined as the ratio of the emission at 520 nm to that at 495 nm. Percent effect of each well is determined after normalization to control wells containing DMSO (no effect) or a saturating concentration of inhibitor (max effect). The apparent effect as a function of compound concentration is fit to a four-parameter logistic equation.
(§6) For Example No. 14, nucleotide exchange assays for KRAS G12D, WT, G12C, and G12V were performed according to Procedure B. All the other compounds were tested according to Procedure A.

The target in the next assay is KRAS WT (Homo sapiens, UniProt P01116). Briefly: SOS-catalyzed nucleotide exchange assay, KRAS WT (Procedure A). The format is biochemical. The following applies: GNE.
Sequence of KRAS WT (P01116 with tags, fused parts or gaps isoform P01116-2): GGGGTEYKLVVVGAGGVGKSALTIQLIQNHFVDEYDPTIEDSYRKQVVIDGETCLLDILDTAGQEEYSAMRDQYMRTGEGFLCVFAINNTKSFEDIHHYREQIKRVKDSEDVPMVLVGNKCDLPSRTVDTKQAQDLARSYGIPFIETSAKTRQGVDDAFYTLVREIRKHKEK
Source text: as §1, §2, §3, §4, §5, §6

In another assay the target is KRAS G12V (Homo sapiens, UniProt P01116, G12V). Briefly: SOS-catalyzed nucleotide exchange assay, KRAS G12V (Procedure A). The assay is classed as biochemical. The following applies: GNE.
Sequence of KRAS G12V (P01116 with tags, fused parts or gaps isoform P01116-2 G12V): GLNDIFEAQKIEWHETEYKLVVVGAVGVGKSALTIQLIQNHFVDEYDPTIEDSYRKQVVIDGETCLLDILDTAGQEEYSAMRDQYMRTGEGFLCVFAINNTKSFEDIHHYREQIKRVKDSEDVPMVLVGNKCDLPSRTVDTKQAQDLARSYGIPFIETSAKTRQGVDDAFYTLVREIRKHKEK
Source text: as §1, §2, §3, §4, §5, §6

In another assay the target is T1, AsPC-1 cells (Homo sapiens, UniProt P01116, G12D).
T1 construct: p-ERK/total ERK AlphaSureFire read-out
T1 sequence (P01116 1-188 isoform P01116-2 G12D): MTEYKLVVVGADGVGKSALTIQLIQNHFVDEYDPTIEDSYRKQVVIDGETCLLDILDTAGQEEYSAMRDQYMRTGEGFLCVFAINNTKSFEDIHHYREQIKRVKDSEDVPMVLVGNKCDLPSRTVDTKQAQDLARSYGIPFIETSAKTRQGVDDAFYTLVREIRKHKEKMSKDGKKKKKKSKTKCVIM
Briefly: Cellular phospho-ERK assay, AsPC-1 cells (KRAS G12D). The assay is classed as cell-based. The following applies: 2 hours, read-out: AsPC1 pERK IC50. As to the method: Procedure for Cellular Phospho-ERK Assay in KRAS Wild Type and Mutant (G12D, G12V) Cell Lines
PANC08.13 cells (ATCC® CRL-2551™), containing homozygous KRAS-G12D activating mutation, were cultured in growth medium made of RPMI1640-GlutaMAX™-I (ThermoFisher Scientific 61870) containing 15% heat inactivated fetal bovine serum (ThermoFisher Scientific 10091148)). AsPC-1 cells (ATCC® CRL-1682™), containing homozygous KRAS-G12D activating mutation, were cultured in T150 flask in growth medium (RPMI medium 1640-GlutaMAX™-I (ThermoFisher Scientific 61870) containing 10% fetal bovine serum (ThermoFisher Scientific 10091148)).
Cells for the assay were harvested in growth medium after TrypLE (ThermoFisher scientific 12604021) digestion and were seeded in a 384-well collagen coated cell culture plate (Corning 356702) at a density of 10,000-15,000 cells/20 μL/well, and incubated at 37° C., 5% CO2 overnight. The compound (with 10 mM stock concentration) dose-response titrations were prepared [30 μM final ERK detection assay concentration and 1:3 dilutions, 10-point dose response] and appropriate amounts (270 nL) of test compounds were dispensed in a 384-well intermediate plate using an Echo 550 liquid handler. 30 μL/well of RPMI medium 1640-GlutaMAX™-I was added to the intermediate plate and the contents of the intermediate plate (10 μL/well) were then transferred to the 384-well collagen coated cell culture plate, which was incubated at 37° C., 5% CO2 for 2 hours. After removal of medium from the collagen coated cell culture plate, cells were lysed in lysis buffer from Alpha SureFire® Ultra™ Multiplex p-ERK and total ERK assay kit (PerkinElmer MPSU-PTERK) containing Halt™ Protease and Phosphatase inhibitor cocktail (ThermoFisher Scientific 78446) at room temperature with constant shaking at 300 rpm for 30 minutes. The cell lysates were then transferred to an OptiPlate-384 plate (PerkinElmer 6005620), and the phosphorylation of ERK (p-ERK) and total ERK levels were detected by Alpha SureFire® Ultra™ Multiplex p-EEK kit and total ERK assay kit (PerkinElmer MPSU-PTERK) following the manufacturer's protocol. Assay plates were read on a EnVision Multimode Plate Reader (PerkinElmer), and the ratio of p-ERK vs. total ERK in each well was used as the final readout. Dose response curves were analyzed using a 4-parameter logistic model to calculate IC50 values using Spotfire software.

Sequence of KRAS G12D (P01116 with tags, fused parts or gaps isoform P01116-2 G12D): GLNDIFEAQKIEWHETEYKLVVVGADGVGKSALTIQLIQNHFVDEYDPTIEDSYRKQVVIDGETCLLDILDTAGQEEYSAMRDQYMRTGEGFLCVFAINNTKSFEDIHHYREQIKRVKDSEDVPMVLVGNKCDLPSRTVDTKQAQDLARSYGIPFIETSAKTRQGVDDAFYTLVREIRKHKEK

Take `Cc1cc2[nH]ncc2c(-c2nccc3c2sc2nc(N4CCCN(C)CC4C)nc(N4C[C@H]5CC[C@@H](C4)N5)c23)c1C(F)(F)F` (stereo partly drawn) [Ex-81, 4-((1R,5S)-3,8-diazabicyclo[3.2.1]octan-3-yl)-2-(2,4-dimethyl-1,4-diazepan-1-yl)-8-(6-methyl-5-(trifluoromethyl)-1H-indazol-4-yl)pyrido[4′,3′:4,5]thieno[2,3-d]pyrimidine]: the 50% inhibitory concentration (IC50) against KRAS G12D was 0.575 µM; against KRAS WT, greater than 11.1 µM; against KRAS G12V, greater than 11.1 µM; at AsPC-1 cells, 6.8 µM.
For the compound `C#Cc1c(F)ccc2cc3[nH]ncc3c(-c3nccc4c3sc3nc(OCC5(CN(C)C)COC5)nc(N5C[C@H]6CC[C@@H](C5)N6)c34)c12` [Ex-95, 1-(3-(((4-((1R,5S)-3,8-diazabicyclo[3.2.1]octan-3-yl)-8-(5-ethynyl-6-fluoro-1H-benzo[f]indazol-4-yl)pyrido[4′,3′:4,5]thie-no[2,3-d]pyrimidin-2-yl)oxy)methyl)oxetan-3-yl)-N,N-dimethylmethanamine], the IC50 turned out to be 0.00529 µM against KRAS G12D, 2.8 µM on KRAS WT, 6.76 µM at KRAS G12V and 0.18 µM on AsPC-1 cells.
`C#Cc1c(F)ccc2cc3[nH]ncc3c(-c3nccc4c3sc3nc(OC[C@@]56CCCN5C[C@@H](F)C6)nc(N5CC6CCC(C5)N6)c34)c12` [Ex-108, 4-(3,8-diazabicyclo[3.2.1]octan-3-yl)-8-(5-ethynyl-6-fluoro-1H-benzo[f]indazol-4-yl)-2-(((2S,7aS)-2-fluorotetrahydro-1H-pyrrolizin-7a(5H)-yl)methoxy)pyrido[4′, 3′:4,5]thieno[2,3-d]pyrimidine]: the concentration for half-maximal inhibition (IC50) came to 0.00162 µM against KRAS G12D, 0.215 µM on KRAS WT, 0.372 µM at KRAS G12V and 0.0162 µM on AsPC-1 cells.
As to `C#Cc1cc(F)cc2cc3[nH]ncc3c(-c3nccc4c3sc3nc(OC[C@@]56CCCN5C[C@H](F)C6)nc(N5C[C@H]6CC[C@@H](C5)N6)c34)c12` [Ex-86, 4-((1R,5S)-3,8-diazabicyclo[3.2.1]octan-3-yl)-8-(5-ethynyl-7-fluoro-1H-benzo[f]indazol-4-yl)-2-(((2R,7aS)-2-fluorotetrahydro-1H-pyrrolizin-7a(5H)-yl)methoxy)pyrido[4′,3′:4,5]thieno[2,3-d]pyrimidine], the IC50 on KRAS G12D came out at 0.00331 µM; against KRAS WT it was 0.542 µM; at KRAS G12V it was 1.24 µM; at AsPC-1 cells, 0.0546 µM.
The corresponding values for `C#Cc1c(F)ccc2cc3[nH]ncc3c(-c3nccc4c3sc3nc(OCC5(C#N)CCOCC5)nc(N5C[C@H]6CC[C@@H](C5)N6)c34)c12` [Ex-90, 4-(((4-((1R,5S)-3,8-diazabicyclo[3.2.1]octan-3-yl)-8-(5-ethynyl-6-fluoro-1H-benzo[f]indazol-4-yl)pyrido[4′,3′:4,5]thie-no[2,3-d]pyrimidin-2-yl)oxy)methyl)tetrahy-dro-2H-pyran-4-carbonitrile] are 0.187 µM, greater than 11.1 µM, greater than 11.1 µM and 3.31 µM.
Take `C#Cc1c(F)ccc2cc3[nH]ncc3c(-c3nccc4c3sc3nc(OC[C@]5(CN6CC[C@@H](F)C6)CC5(F)F)nc(N5C[C@H]6CC[C@@H](C5)N6)c34)c12` [Ex-103, 4-((1R,5S)-3,8-diazabicyclo[3.2.1]octan-3-yl)-2-(((R)-2,2-difluoro-1-(((R)-3-fluoropyrrolidin-1-yl)methyl)cyclopropyl)methoxy)-8-(5-ethynyl-6-fluoro-1H-benzo[f]indazol-4-yl)pyrido[4′,3′:4,5]thie-no[2,3-d]pyrimidine]: the IC50 at KRAS G12D came out at 0.002 µM; against KRAS WT, 2.36 µM; on KRAS G12V it was 9.28 µM; on AsPC-1 cells, 0.296 µM.
The corresponding values for `C#Cc1c(F)ccc2cc3[nH]ncc3c(-c3nccc4c3sc3nc(OC[C@@]56CCCN5C[C@H](F)C6)nc(N5C[C@H]6CC[C@@H](C5)N6)c34)c12` [Ex-56] are 0.00445 µM, 0.225 µM, 0.283 µM and 0.0318 µM.
The corresponding values for `C#Cc1c(F)ccc2cc3[nH]ncc3c(-c3nccc4c3sc3nc(OCC5(C(=O)NC)CC5)nc(N5C[C@H]6CC[C@@H](C5)N6)c34)c12` [Ex-91, 1-(((4-((1R,5S)-3,8-diazabicyclo[3.2.1]octan-3-yl)-8-(5-ethynyl-6-fluoro-1H-benzo[f]indazol-4-yl)pyrido[4′,3′:4,5]thie-no[2,3-d]pyrimidin-2-yl)oxy)methyl)-N-methylcyclopropane-1-carboxamide] are 0.0506 µM, greater than 11.1 µM, greater than 11.1 µM and 5.03 µM.
In the same order, the values of `Cc1cc2[nH]ncc2c(-c2nccc3c2sc2nc(OC[C@@]45CCCN4C[C@H](F)C5)nc(N4C[C@H]5CC[C@@H](C4)N5CC(C)O)c23)c1C(F)(F)F` (stereo partly drawn) [Ex-113, 1-((1R,5S)-3-(2-(((2R,7aS)-2-fluorotetrahydro-1H-pyrrolizin-7a(5H)-yl)methoxy)-8-(6-methyl-5-(trifluoromethyl)-1H-indazol-4-yl)pyrido[4′,3′:4,5]thieno[2,3-d]pyrimidin-4-yl)-3,8-diazabicyclo[3.2.1]octan-8-yl)propan-2-ol] are 0.492 µM, 1.11 µM, 1.85 µM and 2.38 µM.
Regarding `Cc1cc2[nH]ncc2c(-c2nccc3c2sc2nc(OC[C@@]45CCCN4C[C@H](F)C5)nc(N4[C@@H]5CC[C@H]4CN(CC(C)O)C5)c23)c1C(F)(F)F` (stereo partly shown) [Ex-112], the IC50 against KRAS G12D is 6.77 µM; on KRAS WT, greater than 11.1 µM; on KRAS G12V, greater than 11.1 µM; on AsPC-1 cells, 14.7 µM.
